Measured values as given in patent publication US20230115176A1 (Ra Pharmaceuticals, Inc., priority 2019, published 2023).
In brackets after ≈: the same amount, converted by molar mass.

Assays:
[1] = target: T1, Human C5 (Homo sapiens, UniProt P01031); test: Hemolysis assay, luminescent, classical complement pathway (Example 4, Table 7); assay type: cell-based; conditions: sheep EA cells, 1.5% C5-depleted human serum, 0.5 nM human C5, luminescence readout
T1 construct: purchased Complement Technology
T1 sequence (P01031 19-1676): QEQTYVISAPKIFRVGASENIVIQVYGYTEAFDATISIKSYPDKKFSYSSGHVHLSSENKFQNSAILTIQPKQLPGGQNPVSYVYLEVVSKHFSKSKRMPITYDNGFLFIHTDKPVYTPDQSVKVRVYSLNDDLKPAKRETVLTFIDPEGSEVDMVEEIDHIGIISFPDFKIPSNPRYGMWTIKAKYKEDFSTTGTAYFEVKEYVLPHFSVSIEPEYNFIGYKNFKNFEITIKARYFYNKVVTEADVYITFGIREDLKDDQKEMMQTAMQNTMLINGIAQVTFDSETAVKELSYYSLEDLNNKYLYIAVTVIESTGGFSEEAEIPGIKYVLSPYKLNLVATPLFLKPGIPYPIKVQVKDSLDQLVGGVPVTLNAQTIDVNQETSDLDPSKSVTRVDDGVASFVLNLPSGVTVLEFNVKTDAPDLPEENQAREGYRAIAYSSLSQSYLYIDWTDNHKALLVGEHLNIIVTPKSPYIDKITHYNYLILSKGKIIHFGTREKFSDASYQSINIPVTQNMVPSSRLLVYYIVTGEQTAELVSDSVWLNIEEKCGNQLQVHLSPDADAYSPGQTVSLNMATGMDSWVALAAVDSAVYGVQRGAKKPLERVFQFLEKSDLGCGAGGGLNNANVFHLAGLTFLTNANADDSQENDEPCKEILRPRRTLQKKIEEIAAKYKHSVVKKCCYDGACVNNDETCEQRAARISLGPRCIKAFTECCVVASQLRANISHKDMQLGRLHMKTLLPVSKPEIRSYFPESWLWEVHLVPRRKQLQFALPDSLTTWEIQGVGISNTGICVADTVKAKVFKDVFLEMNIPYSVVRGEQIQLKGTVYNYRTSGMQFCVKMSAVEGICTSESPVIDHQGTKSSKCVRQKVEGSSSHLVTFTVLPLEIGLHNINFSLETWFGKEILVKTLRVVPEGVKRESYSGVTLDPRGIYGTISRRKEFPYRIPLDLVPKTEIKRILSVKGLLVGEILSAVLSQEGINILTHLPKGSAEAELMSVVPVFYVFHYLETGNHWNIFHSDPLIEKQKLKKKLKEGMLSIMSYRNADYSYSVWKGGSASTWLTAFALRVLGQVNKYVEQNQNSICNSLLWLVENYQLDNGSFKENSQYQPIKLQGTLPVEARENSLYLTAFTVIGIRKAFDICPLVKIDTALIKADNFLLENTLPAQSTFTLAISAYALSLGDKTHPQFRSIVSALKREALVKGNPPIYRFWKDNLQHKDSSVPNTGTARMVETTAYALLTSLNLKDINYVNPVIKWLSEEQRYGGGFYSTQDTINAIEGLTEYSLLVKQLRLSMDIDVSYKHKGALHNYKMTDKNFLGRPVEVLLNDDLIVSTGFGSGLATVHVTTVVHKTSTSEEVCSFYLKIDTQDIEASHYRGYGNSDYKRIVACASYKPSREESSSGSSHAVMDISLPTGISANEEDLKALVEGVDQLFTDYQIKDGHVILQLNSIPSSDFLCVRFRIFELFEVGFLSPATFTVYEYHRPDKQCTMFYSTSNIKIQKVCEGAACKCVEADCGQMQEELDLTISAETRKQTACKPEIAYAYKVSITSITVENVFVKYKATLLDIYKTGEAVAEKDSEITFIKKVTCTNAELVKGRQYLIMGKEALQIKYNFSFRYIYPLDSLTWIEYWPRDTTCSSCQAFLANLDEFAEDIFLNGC
Description: Numbers in parenthesis following the compound number indicate alternate enantiomers (as distinguished by retention time during chromatographical separation).

[2] = target: purified human C5 (Homo sapiens, UniProt P01031); test: Red blood cell hemolysis assay, optical, absorbance 412 nm (Example 3, Table 6); assay type: cell-based; conditions: antibody-sensitized sheep erythrocytes, 1.5% human C5 depleted sera, 0.5 nM human C5; average where replicates
Chain of purified human C5 (P01031 19-1676): as above
Description: Experiments were carried out using a red blood cell (RBC) hemolysis assay to assess compound inhibition of RBC lysis. […] The assay was carried out using 1.5% human C5 depleted sera and 0.5 nM purified human C5.
GVB++ buffer (Complement Technology, Tyler, Tex.) was heated at 37° C. for a minimum of 20 minutes. The human C5 depleted sera and purified human C5 were rapidly thawed at 37° C. and then stored on ice or wet ice, respectively. The compound stock (10 mM, DMSO) was serially diluted in 100% DMSO to obtain ten 6-fold dilutions before addition of GVB++. Sera dilution was prepared by adding 5 mL of GVB++ to a 15 mL conical tube, removing 600 μL of the GVB++ and adding 600 μL of the 100% sera. The tube was mixed by inverting three times. A volume of 25 μL of the diluted sera was added to each well so that the final concentration of sera in the well was 1.5%. C5 dilution was prepared by adding 5 mL of GVB++ to a 15 mL conical tube, removing 4 μL of the GVB++ and adding 4 μL of the C5 stock. The tube was mixed by inverting three times. A volume of 25 μL was added to each well so that the final amount of C5 was 0.5 nM in each well. The antibody-sensitized sheep erythrocytes (EAs) were centrifuged at 1,000× gravity at 22° C. for 3 minutes. The supernatant was pipetted off without disrupting the pellet. The pellet was then resuspended in GVB++ with the same volume removed. Resuspended EAs were mixed by gently inverting the tube.
Five controls were run on each plate: (1) EAs only=100 μL EAs+50 μL GVB++ with 4% DMSO+50 μL GVB++; (2) EA+Sera=100 μL EAs+50 μL GVB++ with 4% DMSO+25 μL Sera dilution+25 μL GVB++; (3) EA+C5=100 μL EAs+50 μL GVB++ with 4% DMSO+25 μL C5 dilution+25 μL GVB++; (4) EA+Sera+C5=100 μL EAs+50 μL GVB++ with 4% DMSO+25 μL Sera dilution+25 μL C5; (5) GVB++ Only=200 μL GVB++. Other wells included: GVB++ with 4% DMSO=20 μL DMSO+480 μL GVB++. All samples were analyzed in duplicate. The compound dose response curve was generated using samples prepared with 100 μL EA+50 μL compound dilution+25 μL C5 dilution+25 μL sera dilution.
Test plates were prepared by adding 100 μL of EAs, 50 μL of compound dilution, 25 μL of sera dilution, and 25 μL of C5 dilution to individual wells of a 96-well tissue culture-treated clear microtitre plate (USA Scientific, Ocala, Fla.) and resuspending by pipetting up and down three times. The samples were incubated at 37° C. for one hour. At the completion of the incubation, the plates were centrifuged at 1,000× gravity for 3 minutes. 100 μl of supernatant were transferred to a new plate and the absorbance was read at 412 nm. Data was fit with a log-logit formula producing a dose-response curve and IC50.
“IC50” refers to the half maximal inhibitory concentration, where the value is the concentration of the inhibitor needed to reduce red blood cell hemolysis by half. Where replicate analysis was conducted, average IC50 values are provided along with standard deviation (SD) values.

[3] = target: T1, Human C5; test: Surface plasmon resonance (SPR), compounds on immobilized human C5 (Example 2, Table 5); assay type: binding; conditions: lowest value where a range of compound concentrations were analyzed
Description: Surface plasmon resonance (SPR) technology was used to evaluate affinity, specificity, and kinetics of interactions between compounds and complement protein C5 in real time without the need for labeling.
SensiQ FE SPR system (SensiQ Technologies, Oklahoma City, Okla.) was used to provide sensitive and accurate detection of binding of small molecules to the very large C5 protein (MW=195,000 Da). The chip was prepared by preconditioning the sensor according to the protocol of the SensiQ FE using 10 mM HCl, 50 mM NAOH and 0.1% SDS. The sensor chip was activated by using a mixture of fresh EDAC (1-ethyl-3-(-3-dimethylaminopropyl) carbodiimide) (Sigma Co., St. Louis, Mo.) and NHS (N-hydroxy succinimide) (Sigma Co., St. Louis, Mo.). Human C5 was surface immobilized to a Pioneer Biosensor chip via random amine coupling (>12,000 RU) which makes use of the N-terminus and ε-amino groups of lysine residues of the protein ligand. Immobilization was done by injecting 30-40 μg/ml C5 in 10 mM NaAc pH 4.5 onto designated channels at a rate of 10 μL/minute for 12 minutes, targeting RL>12000 RU for small molecules.
Compounds were diluted in DMSO in a format of 100-fold final concentration and 3-fold serial dilution (5 or 6 dilutions). The 100-fold compounds were transferred to one-fold DMSO-free assay buffer in the 96-well test plate. The compound solution was injected at a rate of 60 μL/minute for 30-60 seconds, followed by 60-90 seconds dissociation time, buffer flushing and/or priming. Blank solution (1% DMSO assay buffer) was run for every 6 injections of compounds. Double reference by subtracting both blank channel and reference channel was applied for data processing. Titration of C5 binding compounds to the C5-immobilized biosensor chip surface led to interactions between C5 and potential binders, and the resulting changes of surface refractive index were sensitively measured by the system.
SPR data were analyzed with the managing software provided by SensiQ and equilibrium dissociation constant (KD) values were determined for each compound. Where a range of compound concentrations were analyzed, the lowest value obtained is presented.

[4] = test system: P-glycoprotein (P-gp, MDR1); test: Permeability assay, bidirectional transport, efflux ratio (Example 30, Table 34); assay type: in vitro ADME, canine; conditions: dog, MDCK-MDR1, pH 7.4; read-out: MDCK-MDR efflux ratio
Description: (§1) Permeability assays were carried out to provide a preliminary indication of suitability for oral dosing and compound permeability across the blood brain barrier. Unidirectional and bidirectional compound transport across Madin Darby canine kidney (MDCK) cell monolayers was assessed. For unidirectional transport assessment, transport across MDCK wild type (MDCK-WT) cell monolayers was assessed. For bidirectional transport, transport across MDCK-MDR1 cell monolayers was assessed. MDCK-MDR1 cells express the MDR1 gene encoding the P-glycoprotein (P-gp) efflux protein.
(§2) MDCK-WT and MDCK-MDR1 cells were plated onto permeable polycarbonate supports in 12-well Costar transwell plates and allowed to grow and differentiate for 3 days. After 3 days in culture, the culture medium (DMEM supplemented with 10% FBS) was removed from both sides of the transwell inserts and cells were rinsed with warm HBSS. After the rinse step, the chambers were filled with warm transport buffer (HBSS containing 10 mM HEPES, 0.25% BSA, pH 7.4) and the plates were pre-incubated at 37° C. for 30 minutes prior to TEER (Trans Epithelial Electric Resistance) measurements.
(§3) The buffer in the donor chamber (apical side for A-to-B assay, basolateral side for B-to-A assay) was removed and replaced with the working solution (3 μM test compound and 10 μM for control compounds in transport buffer). The plates were then placed at 37° C. under light agitation. At designated time points (30, 60 and 90 min), an aliquot of transport buffer from the receiver chamber was removed and replenished with fresh transport buffer. Samples were quenched with ice-cold ACN containing internal standard and then centrifuged to pellet protein. Resulting supernatants were further diluted with 50/50 ACN/H2O (Atenolol diluted in just water) and submitted for LC-MS/MS analysis. Apparent permeability (Pap) values were calculated from duplicate determinations. Atenolol and propranolol were tested as low and […] permeability references.
Efflux ratios were calculated for bidirectional transport across MDCK-MDR1 cell monolayers as an indication of compound efflux by P-gp. The efflux ratio is calculated using the ratio of mean Papp values for B to A transport to mean Papp values for A to B transport [Papp(BA)/Papp(AB)].

[5] = Permeability assay, unidirectional transport, Papp (Example 30, Table 34); assay type: in vitro ADME, canine; conditions: dog, pH 7.4; MDCK-WT cell monolayers, A-to-B, 3 μM test compound, 37° C., duplicate determinations
Description: as §1, §2, §3
Papp values indicate extent of compound permeation across monolayers.

[6] = Kinetic solubility in PBS pH 7.4, HPLC-UV (Example 21, Table 27); assay type: physicochemical; conditions: phosphate buffered saline, aqueous buffer, kinetic from dmso stock, 0.5 M PBS, shaken minimum 24 h at approximately 25° C., HPLC-UV 270 nm
How it was run: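 Supernatant measured by HPLC-UV (270 nm) against a DMSO calibration curve of 15.6–500.0 μM after filtration. Triplicate samples were made from 10 mM DMSO stock in 0.05 M phosphate buffer pH 7.4 (5% DMSO) and shaken at least 24 h at about 25 °C.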

[7] = target: human C5 complement protein (Homo sapiens, UniProt P01031); test: Surface plasmon resonance (SPR), immobilized human C5, 37° C. (Example 27, Table 31); assay type: binding; conditions: lowest value obtained where a range of concentrations was analyzed (Table 31)
Chain of human C5 complement protein (P01031 19-1676): as above

[8] = target: T1, Human C5; test: Red blood cell (RBC) hemolysis assay, luminescent (Example 28, Table 32); assay type: cell-based; conditions: sheep EA cells, 1.5% C5-depleted human serum, 0.5 nM human C5, 1 hour at 37° C., luminescence (Table 32)
Description: Sheep red blood cells coated with rabbit anti-sheep erythrocyte antiserum (EA cells; Complement Technology, Tyler, Tex.) were used to assay compound inhibitory activity of the classical complement activation pathway. Briefly, the EA cells were washed once and resuspended in the same volume of GVB++ buffer (Complement Technology, Tyler, Tex.). 25 μL of EA cells were then distributed into each well of 384-well tissue culture plates using Apricot iPipette Pro (Apricot Designs; Covina, Calif.). Compounds were tested in 10 points of final concentrations ranging from 16.67 μM to 1.65 μM in a 6-fold titration series. Compounds were dispensed into 384-well plates from 6.7 mM and 3.35 μM DMSO working stocks using an HP Digital Dispenser (HP; Corvallis, Oreg.). The reactions also contained 1.5% (v/v) C5-depleted human serum (Complement Technology). Hemolysis was induced by addition of human C5 (Complement Technology) at a concentration of 0.5 nM and plates were incubated for 1 hour at 37° C. in a cell culture incubator. The extent of hemolysis was measured by ability of released hemoglobin to catalyze luminol in the presence of hydrogen peroxide. Luminescence was then measured using a plate reader. Luminescence measurements were used to prepare a dose-response curve. From the curve, the half maximal inhibitory concentration (IC50) for each compound was determined, where the IC50 represents the concentration of each compound needed to reduce red blood cell hemolysis by half.

| solubility kinetic [6] [µM] | Kd [7] [nM] | SMILES | IC50 [1] [nM] | IC50 [8] [nM] | other results |
| --- | --- | --- | --- | --- | --- |
|  |  | CCCCCOc1cc(NC(=O)N(CC(=O)NCc2cccnc2)Cc2cc(F)ccc2OC)ccc1OC [SM0205] | 1290 |  |  |
|  |  | COc1ccccc1CNC(=O)Nc1ccc(OC)c(OCCCC(C)C)c1 [SM0006] | 37.6 |  | IC50 [2]: 125 nM; Kd [3]: 18 nM |
|  |  | CCCCOc1cc(NC(=O)N[C@@H](CO)c2ccccc2)ccc1OC [SM0035] | 328 |  | IC50 [2]: 1180 nM |
| 195 (≈ 96.6 µg/mL) |  | COc1cc(CNC(C)=O)ccc1CN1CCCN(c2ccc(OC)c(OCCCC3CC3)c2)C1=O [CU0501] |  |  | efflux ratio at 3 μM [4]: 60; Papp A→B at 3 μM [5]: 24.2 ×10⁻⁶ cm/s |
| 52 (≈ 27.8 µg/mL) | 0.36 | CCCCCOc1cc(N2CC[C@H](C)N(Cc3cccc4c3c(C)cn4CC(=O)N(C)C)C2=O)ccc1OC [SC0107] |  | 1.1 |  |
|  |  | CCCCCOc1cc(NC(=O)N2CCC[C@@H]2c2ccccc2Cl)c(CNC(=O)CCl)cc1OC [SM0203] | 255 |  |  |
|  |  | CCCCCOc1cc(N2CCCN(Cc3ccnc4c3c(Cl)cn4CC(=O)N3CC4CC(C3)O4)C2=O)ccc1OC [CU0506] |  |  | efflux ratio at 3 μM [4]: 59; Papp A→B at 3 μM [5]: 21.1 ×10⁻⁶ cm/s |
|  |  | CCCCCOc1cc(NC(=O)NCc2ccc(Br)cc2OC)ccc1OC [SM0219] | 239 |  |  |
|  |  | CCCCCOc1cc(NC(=O)N(CC(=O)NCC2CC(=O)N(C)C2)Cc2cc(F)ccc2OC)ccc1OC (stereo not drawn) [SM0208] | 914 |  |  |
| 490 (≈ 259 µg/mL) | 2.25 | CCCCCOc1cc(N2CC(CO)CN(Cc3ccc(CC(=O)N(C)C)cc3OC)C2=O)ccc1OC (stereo not drawn) [SC0172] |  | 3.8 |  |
| 315 (≈ 206 µg/mL) | 0.04 | CCCCCOc1cc(N2CC[C@H](C)N(Cc3cccc4c3c(Cl)cn4CC(=O)N3CCOC(CN(C)C)C3)C2=O)ccc1OC (stereo partly drawn) [SC0154] |  | 2.3 |  |
|  |  | CCCCCOc1cc(NC(=O)N(CC(=O)O)Cc2cc(F)ccc2OC)ccc1OC [SM0204] | 753 |  |  |
|  |  | CCCCCOc1cc(NC(=O)N(CC(=O)NC)Cc2cc(F)ccc2OC)ccc1OC [SM0212] | 867 |  |  |
|  |  | CCCCCOc1cc(NC(=O)N(CCC(=O)N(C)C)Cc2cc(F)ccc2OC)ccc1OC [SM0216] | 199 |  |  |
| < 10 | 0.02 | CCCCCOc1cc(N2CC[C@H](C)N(Cc3cccc4c3c(Cl)cn4CC(=O)N3CCCOCC3)C2=O)ccc1OC [SC0128] |  | 1.7 |  |
|  |  | CCCCCOc1cc(N2CCCN(Cc3ccnc4c3c(Cl)cn4CC(=O)N(C)C)C2=O)cnc1OC [CU0616] |  |  | efflux ratio at 3 μM [4]: 18; Papp A→B at 3 μM [5]: 29 ×10⁻⁶ cm/s |
|  |  | COc1ccc(N2CCCN(Cc3ccnc4c3c(Cl)cn4CC(=O)N(C)C)C2=O)cc1Br [CU0689] |  |  | efflux ratio at 3 μM [4]: 8; Papp A→B at 3 μM [5]: 23.8 ×10⁻⁶ cm/s |
| 119 (≈ 72.7 µg/mL) | 0.08 | CCCCCOc1cc(N2CC[C@H](C)N(Cc3ccnc4c3c(Cl)cn4CC(=O)N3CCNC(=O)C3)C2=O)ccc1OC [SC0106] |  | 1.1 |  |
|  |  | CCCCCOc1cc(NC(=O)N(CCOCc2cn(C)cn2)Cc2cc(F)ccc2OC)ccc1OC [SM0217] | 210 |  |  |
|  |  | CCCCCOc1cc(NC(=O)N(CCC(=O)O)Cc2cc(F)ccc2OC)ccc1OC [SM0214] | 175 |  |  |
|  |  | C#CC(=O)NCc1cc(OC)c(OCCCCC)cc1NC(=O)N1CCC[C@@H]1c1ccccc1Cl [SM0201] | 89.5 |  |  |
|  |  | CCCCCOc1cc(NC(=O)N(CC(=O)N(C)C)Cc2cc(F)ccc2OC)ccc1OC [SM0211] | 1910 |  |  |
| 40 (≈ 21.3 µg/mL) | 0.78 | COc1ccc(N2CC[C@H](C)N(Cc3cccc4c3ccn4CC(=O)N(C)C)C2=O)cc1OCCCC1CC1 [SC0174] |  | 4.3 |  |

| solubility kinetic [6] [µM] | Kd [7] [nM] | SMILES | IC50 [1] [nM] | IC50 [8] [nM] | other results |
| --- | --- | --- | --- | --- | --- |
|  |  | COc1ccc(NC(=O)NCc2ccccc2OC(F)F)cc1OCCCC(C)C [SM0104] | 558 |  | Kd [3]: 210 nM |
| < 10 | 0.89 | CCCCCOc1cc(N2CC(CO)CN(Cc3ccc(CNC(=O)c4cocn4)cc3OC)C2=O)ccc1OC (stereo not drawn) [SC0104] |  | 1.1 |  |
| 24 (≈ 14.2 µg/mL) | 0.08 | CCCCCOc1cc(N2CC[C@H](C)N(Cc3cccc4c3c(C)cn4CC(=O)N3CCCOCC3)C2=O)ccc1OC [SC0103] |  | 1 |  |
| 450 (≈ 255 µg/mL) | 0.89 | CCCCCOc1cc(N2CC(C)CN(Cc3ccc(CC(=O)N4CCNC(=O)C4)cc3OC)C2=O)ccc1OC (stereo not drawn) [SC0163] |  | 2.8 |  |
|  |  | CCCCCOc1cc(NC(=O)N(CC(=O)NC2CCN(C(C)=O)CC2)Cc2cc(F)ccc2OC)ccc1OC [SM0209] | 1140 |  |  |
|  |  | CCCCCOc1cc(NC(=O)N(CCC(=O)NCc2ccncc2)Cc2cc(F)ccc2OC)ccc1OC [SM0215] | 244 |  |  |
| 443 (≈ 258 µg/mL) | 1.07 | CCCCCOc1cc(N2CC(CO)CN(Cc3ccc(CC(=O)N4CCNC(=O)C4)cc3OC)C2=O)ccc1OC (stereo not drawn) [SC0178] |  | 4.8 |  |
| 339 (≈ 164 µg/mL) |  | CCCCCOc1cc(N2CCCN(Cc3ccc(CNC(C)=O)cc3OC)C2=O)ncc1OC [CU0579] |  |  | efflux ratio at 3 μM [4]: 31; Papp A→B at 3 μM [5]: 23.5 ×10⁻⁶ cm/s |
|  |  | CCCCCOc1cc(NC(=O)N(CC(N)=O)Cc2cc(F)ccc2OC)ccc1OC [SM0213] | 903 |  |  |
| 411 (≈ 228 µg/mL) | 2.94 | CCCCCOc1cc(N2CC(CO)CN(Cc3ccc(CC(=O)N4CCCC4)cc3OC)C2=O)ccc1OC (stereo not drawn) [SC0184] |  | 5.7 |  |
|  | 0.02 | CCCCCOc1cc(N2CC[C@H](C)N(Cc3ccnc4c3c(Cl)cn4CC(=O)N3CCOC3)C2=O)ccc1OC [SC0113] |  | 1.3 | Papp A→B at 3 μM [5]: 17.9 ×10⁻⁶ cm/s |
|  |  | COc1ccc(NC(=O)N[C@@H](CO)c2ccccc2OC)cc1OCCCC(C)C [SM0002] | 11.9 |  | IC50 [2]: 21.9 nM; Kd [3]: 14 nM |
| > 500 | 3.88 | CCCCCOc1cc(N2CC(CO)CN(Cc3ccc(CC(=O)N4CCOCC4)cc3OC)C2=O)ccc1OC (stereo not drawn) [SC0183] |  | 5.3 |  |
| < 10 | 0.18 | COc1ccc(N2CC[C@H](C)N(Cc3cccc4c3c(Cl)cn4CC(=O)N3CCOCC3)C2=O)cc1OCCCC1CC1 [SC0115] |  | 1.4 |  |
|  |  | CCCCCOc1cc(NC(=O)N(CC(=O)N2CCOCC2)Cc2cc(F)ccc2OC)ccc1OC [SM0210] | 2120 |  |  |
|  |  | COc1ccc(NC(=O)N[C@H]2COC(C)(C)Oc3c(OC)cccc32)cc1OCCCC(C)C [SM0218] | 48.6 |  |  |
| < 10 | 0.92 | CCCCCOc1cc(N2CC[C@H](C)N(Cc3cccc4[nH]cc(C)c34)C2=O)ccc1OC [SC0148] |  | 2.2 |  |
|  |  | CCCCCOc1cc(N2CCCN(Cc3ccnc4c3c(Cl)cn4CC(=O)N3C[C@H]4C[C@@H]3CO4)C2=O)ccc1OC [CU0510] |  |  | efflux ratio at 3 μM [4]: 71; Papp A→B at 3 μM [5]: 22.7 ×10⁻⁶ cm/s |
|  |  | CCCCCOc1cc(NC(=O)N(CC(=O)NCCN2CCCC2)Cc2cc(F)ccc2OC)ccc1OC [SM0206] | 2060 |  |  |
| < 10 | 0.02 | COc1ccc(N2CC[C@H](C)N(Cc3cccc4c3c(Cl)cn4CC(=O)N(C)C)C2=O)cc1OCCCC1CC1 [SC0116] |  | 1.4 |  |
| 81 (≈ 46 µg/mL) | 0.22 | CCCCCOc1cc(N2CC[C@H](C)N(Cc3ccnc4c3c(Cl)cn4CC(=O)N3CCC3)C2=O)ccc1OC [SC0122] |  | 1.5 |  |
|  |  | CCCCCOc1cc(NC(=O)N2CCC[C@@H]2c2ccccc2Cl)c(CNC(=O)/C=C/CN(C)C)cc1OC [SM0202] | 240 |  |  |
